In patent US20250242043A1, “ANTIBODY-DRUG CONJUGATE COMPRISING ANTIBODY AGAINST HUMAN TROP2 AND USE THEREOF” (priority 2022, published 2025) one finds CC50 data, which are given here for 2 compounds.

Square brackets hold non-standard residues; d marks the D form. Peptide text beside a SMILES is read from it. * marks the point of attachment. Dolaproine = CO[C@@H]([C@@H]1CCCN1)[C@@H](C)C(=O)O; Dil = CC[C@H](C)[C@H](NC)[C@@H](CC(=O)O)OC; X1 = C[C@@H](N*)[C@@H](O)c1ccccc1; NMeV = CN[C@H](C(=O)O)C(C)C

Common to all, as to assay: In vitro cytotoxicity (cell proliferation inhibition), SRB dye or Cell titer glo
What all share (assay type): cell-based, human

One data set has as its system BxPC-3. Particulars: BxPC-3, 144 hours. As for the experimental part:
(§1) The cell proliferation inhibitory activity of the ADC produced according to <Example 2> and the drug alone included in the ADC against cancer cell lines were measured.
(§2) Specifically, human pancreatic cancer cell lines (BxPC-3, Capan-1, and PATU-8988s), breast cancer cell lines (JIMT-1 and MDA-MB-468), gastric cancer cell lines (NCI-N87, SNU-601, and SNU-620), colon cancer cell lines (HCT15, HT29, DLD-1, SW480, and COLO205), an ovarian cancer cell line (OVCAR-3), prostate cancer cell lines (PC-3 and LNCaP), and non-small cell lung cancer cell lines (NCI-H1781, HCC827, Calu-1, and Calu-3), which are commercially available as cancer cell lines, were used. MMAE as a drug alone included in the ADC prepared according to Example 3 and SG2057 (CAS #: 260417-62-7, MedKoo Biosciences) as a PBD dimer were used. 500 cells/well to 5,000 cells/well of each cancer cell line were seeded into a 96-well plate and cultured for 24 hours, and then each of ADC1, ADC2 and ADC3 produced according to Example 3 and the drugs MMAE and SG2057 alone were treated at a concentration of […] to 100 nM (5-fold serial dilution). After 144 hours, the number of living cells was quantified using a sulforhodamine B (SRB) dye or Cell titer glo.

In another data set the test system is COLO205. Particulars: COLO205, 144 hours. As for the experimental part: as §1, §2
The next data set concerns Calu-1. Conditions: Calu-1, 144 hours. As for the experimental part: as §1, §2
The subject of a further data set is Calu-3. Particulars: Calu-3, 144 hours. The method, then: as §1, §2
In a further data set the test system is Capan-1. Conditions: Capan-1, 144 hours. The method, then:
as §1, §2

A further data set has as its system DLD-1. Particulars: DLD-1, 144 hours. As for the experimental part:
as §1, §2

The next data set has as its system HCC827. Conditions: HCC827, 144 hours. The method, then: as §1, §2
The subject of a further data set is HCT15. Conditions: HCT15, 144 hours. As for the experimental part: as §1, §2
In the next data set the test system is HT29. Particulars: HT29, 144 hours. The method, then:
as §1, §2

The next data set relates to JIMT-1. Conditions: JIMT-1, 144 hours. As for the experimental part: as §1, §2
A further data set deals with LNCaP. Conditions: 144 hours. The method, then: as §1, §2
The next data set has as its system MDA-MB-468. Particulars: MDA-MB-468, 144 hours. As for the experimental part:
as §1, §2

The next data set has as its system NCI-H1781. Particulars: NCI-H1781, 144 hours. As for the experimental part:
as §1, §2

A further data set has as its system NCI-N87. Particulars: NCI-N87, 144 hours. As for the experimental part:
as §1, §2

Another data set relates to OVCAR-3. Particulars: OVCAR-3, 144 hours. The method, then: as §1, §2
A further data set deals with PC-3. Particulars: PC-3, 144 hours. As for the experimental part: as §1, §2
The test system of another data set is Patu8988S. Conditions: 144 hours. The method, then:
as §1, §2

The test system of another data set is SNU-601. Conditions: SNU-601, 144 hours. The method, then:
as §1, §2

A further data set concerns SNU-620. Particulars: SNU-620, 144 hours. As for the experimental part: as §1, §2
In a further data set the test system is SW480. Conditions: SW480, 144 hours. As for the experimental part:
as §1, §2

The CC50 is the concentration giving 50% cytotoxicity. Low values mean greater toxicity to the cells, high ones lower toxicity to the cells. Take `CC[C@H](C)[C@@H]([C@@H](CC(=O)N1CCC[C@H]1[C@H](OC)[C@@H](C)C(=O)N[C@H](C)[C@@H](O)c1ccccc1)OC)N(C)C(=O)[C@@H](NC(=O)[C@@H](NC)C(C)C)C(C)C` [MMAE, monomethyl auristatin E] (H-[NMeV]V[Dil][Dolaproine]-X1): the CC50 with BxPC-3 is 0.606 nM; in the data set with COLO205 it was 0.628 nM; in the data set with Calu-1, 0.971 nM; with Calu-3, 0.4 nM; in the data set on Capan-1, 0.52 nM; in the data set on DLD-1, 8.88 nM. The CC50 in the data set with HCC827 is 0.674 nM; with HCT15, 3.87 nM; with HT29, 0.33 nM; in the data set on JIMT-1, 0.154 nM; in the data set on LNCaP, 0.551 nM; with MDA-MB-468 it was 0.64 nM. The half-maximal cytotoxic concentration (CC50) in the data set on NCI-H1781 is 0.208 nM; in the data set on NCI-N87 it was 0.725 nM; with OVCAR-3, 0.304 nM; with PC-3, 0.946 nM; in the data set with Patu8988S it was 0.334 nM; in the data set with SNU-601, 0.268 nM. The CC50 was determined as 0.651 nM with SNU-620 and 3.83 nM in the data set on SW480.
Take `C=C1C[C@H]2C=Nc3cc(OCCCCCOc4cc5c(cc4OC)C(=O)N4CC(=C)C[C@H]4C=N5)c(OC)cc3C(=O)N2C1` [SG2057]: the CC50 in the data set on DLD-1 amounted to 0.05 nM; in the data set on HCT15 it was 0.161 nM; in the data set on HT29, 0.02 nM.
